14 compounds from ChEMBL document CHEMBL1145436, “Design and synthesis of 6-methyl-2-oxo-1,2,3,4-tetrahydro-pyrimidine-5-carboxylic acid derivatives as PPARgamma activators” (Bioorg Med Chem Lett, 2007) can be followed below.

This assay concerns the target T1, Peroxisome proliferator-activated receptor gamma (Homo sapiens, UniProt P37231).
T1 sequence (P37231 whole entry): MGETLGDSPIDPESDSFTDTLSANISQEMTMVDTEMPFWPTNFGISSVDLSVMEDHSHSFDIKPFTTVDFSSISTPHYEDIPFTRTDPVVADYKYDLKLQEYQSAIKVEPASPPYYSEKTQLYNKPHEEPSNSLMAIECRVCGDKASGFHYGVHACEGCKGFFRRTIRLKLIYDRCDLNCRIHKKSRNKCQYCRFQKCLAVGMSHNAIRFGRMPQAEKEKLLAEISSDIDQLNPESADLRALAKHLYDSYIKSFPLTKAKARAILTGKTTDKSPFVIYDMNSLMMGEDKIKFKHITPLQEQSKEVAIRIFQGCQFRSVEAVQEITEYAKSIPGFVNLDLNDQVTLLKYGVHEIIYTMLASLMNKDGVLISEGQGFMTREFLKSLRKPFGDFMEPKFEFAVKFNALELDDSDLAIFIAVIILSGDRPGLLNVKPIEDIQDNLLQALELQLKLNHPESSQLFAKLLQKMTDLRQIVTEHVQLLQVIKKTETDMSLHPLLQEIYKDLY
Description: Displacement of [3H]rosiglitazone from PPAR gamma
As to `CC1=C(C(=O)O)C(c2ccc(OCCCn3ccc4cccnc43)cc2)NC(=O)N1` (centres undefined), the IC50 (commonly the midpoint of a concentration-inhibition curve) was 750 nM. This lies in the sub-micromolar range. With `CC1=C(C(=O)O)C(c2ccc(OCCCOc3cc(C)nc4ccccc34)cc2)NC(=O)N1` (centres undefined) the figure was 750 nM; with `CC1=C(C(=O)O)C(c2ccc(OCCn3ccc4cccnc43)cc2)NC(=O)N1` (centres undefined), 1000 nM; with `CC1=C(C(=O)O)C(c2ccc(OCCOc3ccc(C(=O)c4ccc(Cl)cc4)cc3)cc2)NC(=O)N1` (centres undefined), 930 nM. Compound `COc1cccc2c1c1ccccc1n2CCOc1ccc(C2NC(=O)NC(C)=C2C(=O)O)cc1` (centres undefined) displayed an IC50 of 800 nM. With `COc1cc(C2NC(=O)NC(C)=C2C(=O)O)ccc1OCCOc1cc(C)nc2ccccc12` (centres undefined) the figure was 940 nM.

`CC1=C(C(=O)O)C(c2ccc(OCCn3c4ccccc4c4ccccc43)cc2)NC(=O)N1` (centres undefined) displayed an IC50 of 900 nM.

For the compound `COc1cc(C2NC(=O)NC(C)=C2C(=O)O)ccc1OCCOc1cccc2ccc(C)nc12` (centres undefined), the IC50 came to 800 nM. With `CC1=C(C(=O)O)C(c2ccc(OCCOc3cccc4[nH]c5ccccc5c34)cc2)NC(=O)N1` (centres undefined) the figure was 1000 nM; with `CC1=C(C(=O)O)C(c2ccc(OCCOc3cccc4ccc(C)nc34)cc2)NC(=O)N1` (centres undefined), 600 nM. With `CC1=C(C(=O)O)C(c2ccc(OCCCOc3cccc4[nH]c5ccccc5c34)cc2)NC(=O)N1` (centres undefined) the figure was 900 nM; with `COc1cc(C2NC(=O)NC(C)=C2C(=O)O)ccc1OCCn1ccc2cccnc21` (centres undefined), 720 nM.

`CC1=C(C(=O)O)C(c2ccc(OCCOc3cc(C)nc4ccccc34)cc2)NC(=O)N1` (centres undefined) gave an IC50 of 760 nM. This IC50 and that of the compound before are within 1.5-fold of each other. With `COc1cc(C2NC(=O)NC(C)=C2C(=O)O)ccc1OCCn1c2ccccc2c2ccccc21` (centres undefined) the figure was 820 nM.
